Measured values reported in US20050187190A1, “Autoinducer-2 compounds as immunomodulatory agents” (priority 2004, published 2005).

Key:
[1] = system: IL-1 production in J774 macrophages; assay: IL-1 production by stimulated J774 macrophages, ELISA of culture supernatants; format: cell-based, mouse; conditions: for effect on IL-1 production: LPS-treated macrophages; for release of IL-1: absence of exogenously-supplied immunostimulatory factors
Procedure: (§1) J774.1 macrophages were cultured in RPMI 1640 medium containing 15% fetal calf serum in a humidified 37° C. incubator supplied with 5% CO2. Cells were plated at 50% confluency in 96 well format and allowed to attach overnight. For immunostimulation experiments, cells were incubated overnight in 100 μl of the above medium containing sub-maximal stimulatory levels of inducers: 0.1 μg/mL Salmonella lipopolysaccharide (Sigma), 1 μg/mL lipoteichoic acid (Sigma) or sterile, cell-free bacterially conditioned medium at a final concentration of 10^7 cell equivalents/mL. Following incubation, the medium was removed, centrifuged, and stored at −20° C. for subsequent assay for the presence of released cytokines. Preparation of bacterially conditioned medium Pseudomonas aeruginosa strain PAO1 and Lux^+ or Lux^− strains of Salmonella typhimurium 14028 were cultured in Luria Broth overnight. The optical density of the cultures was measured at 600 nm and cell densities calculated through use of a MacFarland's standard. Bacterial cultures were centrifuged and supernatants were filtered through a 0.2 micron sterile filter to remove all bacteria.
(§2) Centrifuged macrophage culture supernatants were assayed for the presence of secreted IL-1 and IL-6 through use of an ELISA kit according to the manufacturer's directions (R&D Systems, Minneapolis, Minn.). Briefly, 10 μl of culture supernatants were bound to test wells precoated with either anti-IL-1 or anti-IL-6 immunoglobulin. Bound cytokine was detected through use of a secondary cytokine-specific antibody tagged with horseradish peroxidase. Assay samples were developed through use of stabilized tetramethylbenzidine and hydrogen peroxide. Cytokine level, directly proportional to the colorimetric signal, was quantitated by measuring sample absorbance at 450 nm.

[2] = system: IL-6 production in J774 macrophages; assay: IL-6 production by stimulated J774 macrophages, ELISA of culture supernatants; format: cell-based, mouse; conditions: for effect on IL-6 production: LPS-treated macrophages; for production of IL-6: regardless of stimulus: viral ribopolymers, LPS or lipoteichoic acid; for release of IL-6: absence of exogenously-supplied immunostimulatory factors
Procedure: as §1, §2

MM32 = MM32 light production assay (quorum sensing activity); format: cell-based, Vibrio harveyi
Text: Such agonists and analogs can be readily recognized by their action on the quorum-sensing system of bacteria such as mutant strains of Vibrio harveyi that respond to AI-2 but cannot produce it themselves. For example, AI-2 analogs and agonists can be identified by known techniques, including but not limited to, large-scale screening of compounds through use of the V. harveyi bioassay described in U.S. Pat. No. 6,780,890 and other techniques described therein. Reduction in signaling activity in the presence of a test compound indicates the ability of that compound to, for example, block bacterial pathogenesis by affecting the expression of one or more virulence factors.

recombinant COX-2 = biological target: T1, recombinant COX-2 (Homo sapiens, UniProt P35354); assay: Inhibition of recombinant COX-2 prostaglandin synthesis, ELISA for PGE2; format: biochemical
T1 sequence (P35354 18-604): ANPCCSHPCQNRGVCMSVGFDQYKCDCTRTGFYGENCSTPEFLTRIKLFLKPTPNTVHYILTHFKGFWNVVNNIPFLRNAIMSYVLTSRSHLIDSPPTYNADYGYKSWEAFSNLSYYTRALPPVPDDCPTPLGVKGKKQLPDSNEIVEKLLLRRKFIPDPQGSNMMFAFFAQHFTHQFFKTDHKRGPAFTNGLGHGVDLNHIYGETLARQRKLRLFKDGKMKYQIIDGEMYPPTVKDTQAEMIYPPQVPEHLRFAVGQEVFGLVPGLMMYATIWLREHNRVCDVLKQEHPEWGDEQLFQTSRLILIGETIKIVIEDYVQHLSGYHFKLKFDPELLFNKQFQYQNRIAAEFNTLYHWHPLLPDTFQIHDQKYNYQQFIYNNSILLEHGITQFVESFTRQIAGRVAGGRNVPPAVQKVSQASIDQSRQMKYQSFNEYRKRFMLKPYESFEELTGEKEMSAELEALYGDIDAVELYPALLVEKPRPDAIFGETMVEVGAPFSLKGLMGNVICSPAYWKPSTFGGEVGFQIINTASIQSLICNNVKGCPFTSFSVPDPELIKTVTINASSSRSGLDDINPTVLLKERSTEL
Procedure: “Max Inhibition” and “Aspirin/1000 uM” are positive inhibition controls. “Analog/500 uM,” represents the inhibition of prostaglandin synthesis by 500 μM MHF; “AI-2/40 uM” and “AI-2/80 uM” represents the inhibition of prostaglandin synthesis by 40 and 80 μM, respectively of AI-2. “Ribose/500 um” the inhibition of prostaglandin synthesis by 500 μM ribose. Prostaglandin synthesis was indirectly quantitated using an ELISA for PGE2 production.
Extracellular bacterial signals trigger expression of cyclooxygenase-2 (cox-2), which amplifies the cellular IL-6 response by catalyzing production of prostaglandin PGE2.
Aspirin, a non-specific inhibitor of COX-2 served as an inhibition control; prostaglandin synthesis was indirectly quantitated in an ELISA assay.

[3] = system: nitric oxide production (iNOS activity) in J774 macrophages; assay: Nitric oxide (nitrite) production by LPS-stimulated J774 macrophages; format: cell-based, mouse
Procedure: FIG. 10 is a bar graph showing that AI-2 treatment suppresses nitric oxide production by LPS-stimulated J774 macrophages. “LPS+34,” “LPS+AI-2(5 ul)” and LPS+AI-2(2 ul) represents inhibition by concurrent treatment with LPS and MHF or the indicated amounts of AI-2. “LPS+ribose” is a control to show the amount of nitric oxide production in the absence of an inhibitor.

[4] = LPS 0.1 μg/mL, concurrent AI-2 40 μM
[5] = LPS-stimulated macrophages, increasing amounts of enzymatically-prepared AI-2

## O=C1O[C@H]([C@@H](O)CO)C(O)=C1O [ascorbic acid, reference compound]
[1]
  effect on IL-1 production: affect neither IL-1 nor IL-6 production
[2]
  effect on IL-6 production: affect neither IL-1 nor IL-6 production

## O=C[C@H](O)[C@H](O)[C@H](O)CO [ribose, reference compound]
[1]
  effect on IL-1 production: affect neither IL-1 nor IL-6 production
[2]
  effect on IL-6 production: affect neither IL-1 nor IL-6 production
  production of IL-6: effects no attenuation
MM32; 50 μM ribose
  quorum-sensing activity: lacks quorum-sensing activity
Recombinant COX-2; 500 μM ribose
  inhibition of PGE2 production: inability of ribose (even at high concentrations, 500 μM) to inhibit PGE2 production

## Nc1ncnc2nc[nH]c12 [adenine, reference compound]
[1]
  release of IL-1: neither AI-2 nor its biosynthesis co-products, adenine and homocysteine, cause macrophages to release IL-1 or IL-6
[2]
  release of IL-6: neither AI-2 nor its biosynthesis co-products, adenine and homocysteine, cause macrophages to release IL-1 or IL-6

## CC(=O)C(=O)[C@@H](O)CO [AI-2]
[1]; [4]
  reduction of overall concentration of IL-1: approximately 50%
[1]; [5]
  IL-1 production, dose dependence: increasing suppression
[1]
  release of IL-1: neither AI-2 nor its biosynthesis co-products, adenine and homocysteine, cause macrophages to release IL-1 or IL-6
[3]
  nitrite (breakdown product of nitric oxide) level: near baseline levels
[2]; [4]
  reduction of overall concentration of IL-6: approximately 50%
[2]; [5]
  IL-6 production, dose dependence: increasing suppression
[2]
  release of IL-6: neither AI-2 nor its biosynthesis co-products, adenine and homocysteine, cause macrophages to release IL-1 or IL-6
  production of IL-6: decrease production of IL-6
[2]; macrophages stimulated with LPS (0.1 μg/ml), 5 μl of the AI-2 reaction product
  reduction in IL-6 levels: ~50%
[2]; read-out: IC50, inhibition of IL-6 production in macrophages
  IC50: 40 µM
Recombinant COX-2; read-out: IC50, prostaglandin level produced by recombinant COX-2
  IC50: 40 µM

## CC1=C(O)C(=O)CO1 [MHF, 5-methyl-4-hydroxy-3(2H)furanone]
[3]
  nitrite (breakdown product of nitric oxide) level: near baseline levels
[2]; LPS-stimulated J774 macrophages
  IL-6 production: suppression of IL-6 production
[2]; lipoteichoic acid-stimulated J774 macrophages
  IL-6 production: suppression of IL-6 production
[2]
  production of IL-6: decrease production of IL-6
[2]; stimulated J774 macrophages, 500 μM MHF
  reduction in IL-6 production: 50%
[2]; stimulated J774 macrophages, little change at higher concentrations
  concentration at which near maximal attenuation of IL-6 release occurs: 877 µM
[2]; stimulated J774 macrophages, titration
  concentration at which detectable attenuation of IL-6 release occurs: 105 µM
[2]; viral ribopolymer (polyCI)-stimulated J774 macrophages
  IL-6 production: suppression of IL-6 production
MM32
  quorum sensing activity: displays quorum sensing activity
MM32; 500 μg/ml MHF
  quorum-sensing activity: comparable to 2.5 μL enzymatically-synthesized AI-2
Recombinant COX-2; 500 μM MHF
  inhibition of Cox-2 prostaglandin synthetase activity: inhibition of Cox-2 prostaglandin synthetase activity

## N[C@@H](CCS)C(=O)O [homocysteine, reference compound]
[1]
  release of IL-1: neither AI-2 nor its biosynthesis co-products, adenine and homocysteine, cause macrophages to release IL-1 or IL-6
[2]
  release of IL-6: neither AI-2 nor its biosynthesis co-products, adenine and homocysteine, cause macrophages to release IL-1 or IL-6
